Test results as given in the supplement of paper PMC11451515.

Tested on: P12-Ichikawa
Test: cell viability relative to DMSO control; higher = less cytotoxic
Conditions: 48 h
In short: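 NOMO1, SEM and P12-Ichikawa leukemia cells spent at least four passages adapting to each medium before use. They were seeded at 500 cells/well (NOMO1, SEM) or 1000 cells/well (P12-Ichikawa) in 5 μl in 1536-well plates and pin-dosed with library compounds in DMSO at 11 threefold steps from 47 μM down to 0.79 nM. After 48 h at 37°C, CellTiter-Glo One luminescence was read. Viability is reported as a percentage of the DMSO wells on each plate, with cell-free wells as background.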

[1] = HPLM + 10% dialyzed FBS, 0.000781 µM
[2] = HPLM + 10% dialyzed FBS, 0.00234 µM
[3] = HPLM + 10% dialyzed FBS, 0.00702 µM
[4] = HPLM + 10% dialyzed FBS, 0.0211 µM
[5] = HPLM + 10% dialyzed FBS, 0.0632 µM
[6] = HPLM + 10% dialyzed FBS, 0.19 µM
[7] = HPLM + 10% dialyzed FBS, 0.569 µM
[8] = HPLM + 10% dialyzed FBS, 1.71 µM
[9] = HPLM + 10% dialyzed FBS, 5.12 µM
[10] = HPLM + 10% dialyzed FBS, 15.4 µM
[11] = HPLM + 10% dialyzed FBS, 46.1 µM
[12] = RPMI 5 mM glucose + 10% FBS, 0.000781 µM
[13] = RPMI 5 mM glucose + 10% FBS, 0.00234 µM
[14] = RPMI 5 mM glucose + 10% FBS, 0.00702 µM
[15] = RPMI 5 mM glucose + 10% FBS, 0.0211 µM
[16] = RPMI 5 mM glucose + 10% FBS, 0.0632 µM
[17] = RPMI 5 mM glucose + 10% FBS, 0.19 µM
[18] = RPMI 5 mM glucose + 10% FBS, 0.569 µM
[19] = RPMI 5 mM glucose + 10% FBS, 1.71 µM
[20] = RPMI 5 mM glucose + 10% FBS, 5.12 µM
[21] = RPMI 5 mM glucose + 10% FBS, 15.4 µM
[22] = RPMI 5 mM glucose + 10% FBS, 46.1 µM
[23] = RPMI 5 mM glucose + 10% dialyzed FBS, 0.000781 µM
[24] = RPMI 5 mM glucose + 10% dialyzed FBS, 0.00234 µM
[25] = RPMI 5 mM glucose + 10% dialyzed FBS, 0.00702 µM
[26] = RPMI 5 mM glucose + 10% dialyzed FBS, 0.0211 µM
[27] = RPMI 5 mM glucose + 10% dialyzed FBS, 0.0632 µM
[28] = RPMI 5 mM glucose + 10% dialyzed FBS, 0.19 µM
[29] = RPMI 5 mM glucose + 10% dialyzed FBS, 0.569 µM
[30] = RPMI 5 mM glucose + 10% dialyzed FBS, 1.71 µM
[31] = RPMI 5 mM glucose + 10% dialyzed FBS, 5.12 µM
[32] = RPMI 5 mM glucose + 10% dialyzed FBS, 15.4 µM
[33] = RPMI 5 mM glucose + 10% dialyzed FBS, 46.1 µM

Row | Compound | cell viability [1] | cell viability [2] | cell viability [3] | cell viability [4] | cell viability [5] | cell viability [6] | cell viability [7] | cell viability [8] | cell viability [9] | cell viability [10] | cell viability [11] | cell viability [12] | cell viability [13] | cell viability [14] | cell viability [15] | cell viability [16] | cell viability [17] | cell viability [18] | cell viability [19] | cell viability [20] | cell viability [21] | cell viability [22] | cell viability [23] | cell viability [24] | cell viability [25] | cell viability [26] | cell viability [27] | cell viability [28] | cell viability [29] | cell viability [30] | cell viability [31] | cell viability [32] | cell viability [33]
1 | O=C1\C=C(/OC2=C1C=CC=C2C3=CC=CC=C3)N4CCOCC4 | 88.3% | 93% | 95.2% | 91.3% | 96.3% | 90.1% | 94.4% | 86.5% | 87.6% | 85.3% | 87.1% | 89.1% | 84.5% | 87.6% | 89.8% | 91.5% | 86% | 75.4% | 76.8% | 81.2% | 74.1% | 67.9% | 86.7% | 84.4% | 84.1% | 84.6% | 89.7% | 84.1% | 86% | 77.2% | 82.4% | 80.3% | 74.1%
2 | C[C@@H]1C[C@H]2[C@@H]3\C=C(C)/C4=C/C5=C(C[C@]4(C)[C@H]3[C@@H](O)C[C@]2(C)[C@@]1(O)C(=O)COC(C)=O)C=N[N]5C6=CC=CC=C6 | 111% | 107% | 99.2% | 91.8% | 67.8% | 61.6% | 58.1% | 58.7% | 59.6% | 51.4% | 55.8% | 123% | 127% | 98% | 85.1% | 62.3% | 54.6% | 45.6% | 51.5% | 49.2% | 46.5% | 46.9% | 114% | 99.7% | 91.7% | 72.2% | 53.3% | 44.1% | 38% | 39.5% | 38.7% | 38.1% | 32.9%
3 | CC(C)(C)OC(=O)CN(Cc1ccc(Cl)cc1)Cc1ccc([N+](=O)[O-])s1 | 99.7% | 107% | 107% | 101% | 99% | 98.3% | 96.2% | 96.5% | 91.6% | 93% | 73.6% | 92.8% | 99.2% | 89% | 97.1% | 88.2% | 99.2% | 93.3% | 99.9% | 92.8% | 88.9% | 69.3% | 99% | 90.7% | 95.9% | 92% | 94.9% | 92% | 87.9% | 86.6% | 82.4% | 91.2% | 62.6%
4 | Cl.c1cnc2cc3c(cc2n1)C1CNCC3C1 | 108% | 111% | 114% | 114% | 119% | 114% | 117% | 122% | 114% | 114% | 106% | 106% | 115% | 121% | 117% | 122% | 117% | 127% | 118% | 127% | 130% | 130% | 106% | 113% | 112% | 116% | 123% | 114% | 121% | 123% | 121% | 116% | 120%
5 | CCOC(=O)Nc1ccc(NCc2ccc(F)cc2)cc1N | 112% | 116% | 116% | 121% | 115% | 110% | 107% | 112% | 101% | 98.6% | 78.6% | 113% | 122% | 122% | 109% | 122% | 114% | 118% | 114% | 109% | 107% | 102% | 118% | 113% | 122% | 118% | 110% | 121% | 113% | 111% | 98.3% | 103% | 87.4%
6 | O=C1c2c(O)cccc2[C@H]([C@@H]2O[C@H](CO)[C@@H](O)[C@H](O)[C@H]2O)c2cc(CO)cc(O)c21 | 91% | 95.8% | 95.1% | 107% | 107% | 98.7% | 106% | 99.4% | 103% | 98.4% | 103% | 93.9% | 93.3% | 102% | 109% | 105% | 109% | 108% | 106% | 101% | 106% | 106% | 91% | 96.4% | 90.9% | 96.8% | 106% | 95.2% | 97% | 95.7% | 103% | 99.4% | 99%
7 | CO/N=C(/C(=O)N[C@@H]1C(=O)N2C(C(=O)O)=C(Cn3ccc(=N)n3CCO)CS[C@H]12)c1csc(N)n1 | 121% | 123% | 125% | 136% | 135% | 126% | 134% | 126% | 141% | 137% | 125% |  |  |  |  |  |  |  |  |  |  |  |  |  |  |  |  |  |  |  |  |  | 
8 | CN1C(=O)\C(=C/C(=C1/NC2=C(F)C=C(I)C=C2)C(=O)NOCCO)C | 94.6% | 99.5% | 103% | 93.4% | 90.4% | 90.1% | 94.5% | 88.9% | 94.5% | 87.7% | 78.1% | 98.2% | 104% | 98.9% | 90.7% | 88.8% | 85.3% | 85.5% | 84.7% | 85.7% | 87.1% | 81.1% | 94.6% | 105% | 96.2% | 99.6% | 92.3% | 90.7% | 95.8% | 90.9% | 101% | 91% | 74.9%
